Test results published in EP0125052B1, “Dopaminergic carbostyrils and a process for preparing them” (SMITHKLINE BECKMAN CORPORATION, priority 1983, dated 1984).
Each block holds one compound with its values, some of them ahead of it.

How the values were obtained:
[1] = tested on: spontaneously hypertensive rat (SHR); test: spontaneously hypertensive rat (SHR) protocol; assay type: in vivo
anesthetized dog = anesthetized dog protocol (renal dog screen) measuring renal and cardiovascular parameters; assay type: in vivo; design: decreased heart rate / arterial blood pressure: dose or concentration left out as unconfirmed
Text: The prior art dopaminergic agent, dopamine, is used as a positive control.

D2 = D2 (Oryctolagus cuniculus, UniProt G1T1Q0); test: cell-based
Chain of D2 (G1T1Q0 1-443): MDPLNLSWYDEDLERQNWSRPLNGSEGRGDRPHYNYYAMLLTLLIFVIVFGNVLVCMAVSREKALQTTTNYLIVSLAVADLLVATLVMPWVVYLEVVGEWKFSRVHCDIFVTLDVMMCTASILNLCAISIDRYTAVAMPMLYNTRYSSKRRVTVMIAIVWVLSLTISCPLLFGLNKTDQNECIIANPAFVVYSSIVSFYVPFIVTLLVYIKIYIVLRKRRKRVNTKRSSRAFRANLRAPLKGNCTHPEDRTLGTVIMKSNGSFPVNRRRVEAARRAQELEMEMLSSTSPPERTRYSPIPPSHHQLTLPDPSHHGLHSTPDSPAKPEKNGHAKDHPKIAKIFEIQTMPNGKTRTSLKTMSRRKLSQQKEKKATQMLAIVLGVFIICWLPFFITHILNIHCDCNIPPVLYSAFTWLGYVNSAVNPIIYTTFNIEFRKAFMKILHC

Compound: CCCN(CCC)CCc1ccc(O)c2[nH]c(=O)ccc12 [5-di-n-propylaminoethyl-8-hydroxycarbostyril]
systolic hypertension ([1]; rat test, 12.5, 25 and 50 mg/kg, i.p.): decreased systolic hypertension
renal blood flow (anesthetized dog; dog protocol, 3 and 30 pg/kg/min infusion): increased renal blood flow

Compound: Cl.NCCc1ccc(O)c2[nH]c(=O)ccc12 [5-aminoethyl-8-hydroxycarbostyril hydrochloride]
systolic blood pressure ([1]; SHR, 25 mg/kg intraperitoneally administered): lowered systolic blood pressure
ED15 (anesthetized dog; Canis lupus familiaris, read-out: RVR-ED15): 1.8 µg/kg
arterial blood pressure (anesthetized dog; by infusion, renal dog screen): -8%
decreased heart rate (anesthetized dog; by infusion, renal dog screen): 22.5%

EC50 (D2): 12 nM
Compound: CCCN(CCc1ccc(O)cc1)CCc1ccc(O)c2[nH]c(=O)ccc12 [5-[N-n-propyl-N-(p-hydroxyphenethyl)aminoethyl)-8-hydroxycarbostyril]
